Source: US20260008760A1, “DIPEPTIDYL PEPTIDASE 1 INHIBITORS AND USES THEREOF” (Insmed Incorporated, priority 2024, published 2026)

What was measured:
DPP1 in HL-60 cells = DPP1 in HL-60 cells (Homo sapiens, UniProt P53634); experiment: DPP1 Cell IC50 assay; type: cell-based; parameters: host or cells: HL-60 cells; conditions: 60 min pre-incubation, H-Gly-Phe-AFC substrate, average of n runs, read-out: Avg. IC50 (DPP1 Cell IC50 value ranges)
How it was run: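 Intracellular DPP1 activity read as AFC fluorescence (Ex/Em 400/505 nm) after 30 min with H-Gly-Phe-AFC (500 μM stock), following 60 min compound pre-incubation at 37° C with HL-60 cells at 5×10^5 live cells per mL in PBS. IC50 by 4-parameter fit against DMSO-only controls.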

human DPP1 enzyme = human DPP1 enzyme (Homo sapiens, UniProt P53634); experiment: Human DPP1 Enzyme Single-Point Percent Inhibition Testing (HL-60 lysate); type: biochemical; parameters: A crude lysate of HL-60 cells (ATCC; Manassas, VA) was used as a source of human DPP1 enzyme; host or cells: HL-60 cells (crude lysate); conditions: final compound concentration of 10 nM, 400 μM H-Gly-Arg-AMC, n = 1
Chain of human DPP1 enzyme (P53634 25-463): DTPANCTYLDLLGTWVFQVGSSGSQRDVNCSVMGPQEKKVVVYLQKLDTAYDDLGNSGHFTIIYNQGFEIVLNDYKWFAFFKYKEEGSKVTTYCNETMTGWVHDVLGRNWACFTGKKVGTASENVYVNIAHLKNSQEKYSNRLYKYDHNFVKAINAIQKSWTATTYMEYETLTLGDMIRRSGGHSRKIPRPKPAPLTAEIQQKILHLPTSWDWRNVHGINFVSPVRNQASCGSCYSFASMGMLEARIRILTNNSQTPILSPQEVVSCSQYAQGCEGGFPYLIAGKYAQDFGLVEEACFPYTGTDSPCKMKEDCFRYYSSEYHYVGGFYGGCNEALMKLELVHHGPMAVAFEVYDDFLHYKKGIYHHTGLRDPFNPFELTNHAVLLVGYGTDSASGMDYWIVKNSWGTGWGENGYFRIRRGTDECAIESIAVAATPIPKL
How it was run: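 Enzyme source was HL-60 cell lysate in MES pH 6.0 buffer with NaCl and DTT, pre-incubated 10 min at 37° C with 10 nM compound (final, 1% DMSO). Cleavage of 400 μM H-Gly-Arg-AMC was followed at 350/450 nm over 90 min at 37° C, and percent inhibition was taken against vehicle wells.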

Chain of DPP1 in HL-60 cells (P53634 25-463): as above

| IC50 (DPP1 in HL-60 cells) | inhibition at 0.01 µM (human DPP1 enzyme) | SMILES |
| --- | --- | --- |
| > 2.5 nM | ≤ 40% | CN1CCCC2(C1)C(=O)N(C)c1ccc(-c3ccc(C[C@@H](C#N)NC(=O)[C@@H]4CNCCCO4)cc3)cc12 (stereo partly drawn) [Compound 18, (2S)—N-[(1S)-1-cyano-2-(4-{1,1′-dimethyl-2-oxospiro[indole-3,3′-piperidin]-5-yl}phenyl)ethyl]-1,4-oxazepane-2-carboxamide] |
| > 2.5 nM | ≤ 40% | N#C[C@H](Cc1ccc(-c2cnc3c(n2)CCCC3)cc1)NC(=O)[C@@H]1CNCCCO1 [Compound A11, (2S)—N-[(1S)-1-cyano-2-[4-(5,6,7,8-tetrahydroquinoxalin-2-yl)phenyl]ethyl]-1,4-oxazepane-2-carboxamide] |
